{
  "source": "paper PMC10140010",
  "about": "(Investigational New Drugs, 2023)",
  "key": {"[1]": {"tested_on": "phosphorylation of ROS1, AKT, ERK in NIH-3T3 (CD74-ROS1) cells", "test": "Western blot of ROS1 and downstream signaling phosphorylation", "type": "cell-based", "conditions": "2 h incubation", "experimental": "(§1) In general, the cells were exposed to the drug and were harvested for western blot analysis. SDS-PAGE was used to separate the proteins of interest, which were then transferred to a nitrocellulose (NC) filtration membrane and soaked in a blocking solution [5% non-fat dry milk in tris-buffered saline with Tween 20 (TBST)] for 1 h at room temperature. Thereafter, the membrane was probed overnight with primary antibodies at 4℃ and washed three times with TBST. The corresponding secondary antibody diluent was added, incubated at room temperature for 1 h, and washed 3 times with TBST. After adding the enhanced chemiluminescence developer to the NC filtration membrane, it is developed in the imaging system (ChemiDoc™ XRS^+, BIO-RAD). See Supplementary Table 2 for details of the antibodies used.\n(§2) It is reported that ROS1-mediated cell signaling pathways include RAS-RAF-MEK-ERK, PI3K-AKT-mTOR and JAK-STAT3 pathways. According to reports and the differences in the expression of signaling pathway proteins in different cells, the key signaling proteins in different signaling pathways were selected for research."}, "[2]": {"tested_on": "phosphorylation of ROS1, ERK, SHP-1 in Ba/F3 (SLC34A2-ROS1) cells", "test": "Western blot of ROS1 and downstream signaling phosphorylation", "type": "cell-based", "conditions": "2 h incubation", "experimental": "as §1, §2"}, "[3]": {"target": "T1, BCRP (Homo sapiens, UniProt Q9UNQ0)", "T1 sequence (Q9UNQ0 1-655)": "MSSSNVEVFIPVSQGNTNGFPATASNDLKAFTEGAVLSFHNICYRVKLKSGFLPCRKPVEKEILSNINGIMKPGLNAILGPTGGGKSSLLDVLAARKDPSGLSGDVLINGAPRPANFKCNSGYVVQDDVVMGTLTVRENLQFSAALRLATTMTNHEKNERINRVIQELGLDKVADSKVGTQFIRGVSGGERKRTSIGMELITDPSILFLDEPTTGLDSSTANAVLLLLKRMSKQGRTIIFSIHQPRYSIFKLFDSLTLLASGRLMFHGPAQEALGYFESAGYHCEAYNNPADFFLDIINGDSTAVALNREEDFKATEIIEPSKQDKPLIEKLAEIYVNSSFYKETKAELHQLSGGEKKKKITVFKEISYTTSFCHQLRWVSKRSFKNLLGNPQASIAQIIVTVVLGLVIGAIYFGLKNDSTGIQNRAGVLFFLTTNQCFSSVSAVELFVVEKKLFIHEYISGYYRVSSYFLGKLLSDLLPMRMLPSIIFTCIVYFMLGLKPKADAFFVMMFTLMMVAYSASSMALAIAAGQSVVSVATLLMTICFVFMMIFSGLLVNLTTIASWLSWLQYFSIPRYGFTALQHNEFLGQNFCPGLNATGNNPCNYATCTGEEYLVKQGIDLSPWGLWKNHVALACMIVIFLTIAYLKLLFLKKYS", "test": "ABC efflux transporter inhibitor test on Caco-2 cells (E3S efflux)"}, "[4]": {"target": "EGFR^L858R/T790M (Homo sapiens, UniProt P00533, L858R/T790M)", "sequence (P00533 25-1210 T790M/L858R)": "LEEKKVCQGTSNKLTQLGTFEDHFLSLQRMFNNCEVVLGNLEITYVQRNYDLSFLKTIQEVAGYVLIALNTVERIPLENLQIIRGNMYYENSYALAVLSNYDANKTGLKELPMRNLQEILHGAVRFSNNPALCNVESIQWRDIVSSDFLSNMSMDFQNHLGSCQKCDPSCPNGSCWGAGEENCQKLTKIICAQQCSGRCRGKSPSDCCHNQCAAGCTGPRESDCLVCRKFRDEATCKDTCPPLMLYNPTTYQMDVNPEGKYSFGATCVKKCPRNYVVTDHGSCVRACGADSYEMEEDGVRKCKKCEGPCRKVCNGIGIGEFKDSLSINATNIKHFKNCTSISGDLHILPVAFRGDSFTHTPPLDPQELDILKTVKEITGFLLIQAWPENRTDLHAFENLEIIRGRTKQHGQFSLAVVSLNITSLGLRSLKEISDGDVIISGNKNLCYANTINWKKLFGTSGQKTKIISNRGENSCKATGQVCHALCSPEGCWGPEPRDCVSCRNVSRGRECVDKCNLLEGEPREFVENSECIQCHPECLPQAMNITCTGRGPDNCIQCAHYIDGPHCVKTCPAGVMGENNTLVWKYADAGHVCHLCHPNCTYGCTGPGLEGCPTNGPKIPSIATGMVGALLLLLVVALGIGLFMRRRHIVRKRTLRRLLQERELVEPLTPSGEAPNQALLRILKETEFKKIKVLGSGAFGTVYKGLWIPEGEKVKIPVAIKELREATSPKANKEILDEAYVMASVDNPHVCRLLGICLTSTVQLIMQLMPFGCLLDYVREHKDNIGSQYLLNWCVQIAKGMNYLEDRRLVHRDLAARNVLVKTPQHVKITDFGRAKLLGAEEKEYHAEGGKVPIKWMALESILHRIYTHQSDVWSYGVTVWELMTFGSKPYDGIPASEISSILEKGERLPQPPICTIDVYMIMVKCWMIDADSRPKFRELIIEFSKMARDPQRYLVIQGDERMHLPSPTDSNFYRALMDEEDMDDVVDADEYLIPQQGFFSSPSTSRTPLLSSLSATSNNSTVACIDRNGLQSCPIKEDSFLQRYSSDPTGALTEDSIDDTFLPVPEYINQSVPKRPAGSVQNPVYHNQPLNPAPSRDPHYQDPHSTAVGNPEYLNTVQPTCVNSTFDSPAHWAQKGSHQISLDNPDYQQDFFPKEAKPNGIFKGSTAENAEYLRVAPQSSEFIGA", "test": "HTRF kinase activity assay", "protocol": "After the kinase proteins, Ulight-peptide species, adenosine triphosphate (ATP), and compound were mixed, the reaction was carried out at room temperature. Reactions were quenched by the addition of ethylene diamine tetraacetic acid buffer containing Eu antibody and XL665-streptavidin at the indicated time points. Plate reading was performed using an Envision (Perkin Elmer, MA, USA) multifunctional microplate reader."}, "[5]": {"target": "T2, MATE1 (Homo sapiens, UniProt Q96FL8)", "T2 sequence (Q96FL8 1-570)": "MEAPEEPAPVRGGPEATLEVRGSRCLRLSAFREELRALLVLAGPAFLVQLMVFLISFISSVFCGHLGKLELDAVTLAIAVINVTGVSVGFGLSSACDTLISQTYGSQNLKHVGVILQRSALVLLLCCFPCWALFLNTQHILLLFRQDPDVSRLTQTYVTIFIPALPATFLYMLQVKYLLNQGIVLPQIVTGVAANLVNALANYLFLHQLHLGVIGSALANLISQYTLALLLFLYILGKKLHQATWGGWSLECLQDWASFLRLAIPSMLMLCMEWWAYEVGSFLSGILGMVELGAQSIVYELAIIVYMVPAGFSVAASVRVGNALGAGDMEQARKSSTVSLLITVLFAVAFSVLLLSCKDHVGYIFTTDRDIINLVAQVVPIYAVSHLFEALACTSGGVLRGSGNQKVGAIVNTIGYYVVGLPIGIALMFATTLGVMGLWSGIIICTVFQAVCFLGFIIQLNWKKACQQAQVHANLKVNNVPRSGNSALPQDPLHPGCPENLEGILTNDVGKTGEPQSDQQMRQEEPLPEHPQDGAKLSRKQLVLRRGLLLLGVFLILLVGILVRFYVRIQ", "test": "in vitro", "protocol": "(§3) Using a stably transfected cell line of HEK293 expressing transporter OATP1B1, OATP1B3 or OCT2, formal substrate investigation tests were performed for three concentration gradients (30 µM, 3 µM, 0.3 µM) of iruplinalkib."}, "[6]": {"tested_on": "P-gp/BCRP/MRP2", "test": "ABC efflux transporter substrate investigation on Caco-2 cells", "conditions": "for efflux ratio at 0.5 µM / efflux ratio at 5 µM / efflux ratio at 50 µM: human"}, "[7]": {"target": "T2, MATE1", "protocol": "as §3"}, "[8]": {"test": "Plasma protein binding rate (dialysis)", "type": "in vitro ADME", "experimental": "At three test concentrations (0.2, 2 and 10 µM), the plasma protein binding rate of iruplinalkib is as follows (Fig. 3a). […] With the increase of concentration, the protein binding rates of iruplinalkib in rat plasma decreased gradually, showing a certain concentration dependence, and there was no concentration dependence of protein binding rate observed in other species plasma."}, "[9]": {"tested_on": "CYP1A2", "test": "Hepatic enzyme induction in human hepatocytes", "type": "in vitro ADME", "conditions": "10 µM, human hepatocytes from three donors", "experimental": "Human hepatocytes derived from three donors were used for evaluating for hepatic enzyme inducing activity. […] The gene expression related to cytochrome P450 isoenzyme CYP3A4 in hepatocytes of one of the three donors increased with iruplinalkib 1 µM."}, "[10]": {"conditions": "human, Caco-2 cells, probe E3S (10 µM)"}},
  "note": "Entries after “also recorded” stand apart in the source; their conditions may differ. Where two headings read alike, the source gives them in different places.",
  "data": [
    {"smiles": "COc1cc(N2CCC3(CCN(C)CC3)CC2)ccc1Nc1ncc(Cl)c(Nc2ccccc2P(C)(C)=O)n1", "note": "[Iruplinalkib]", "values": [
      {"measurement": "phosphorylation levels of ROS1, AKT, ERK", "setting": "[1]", "value": "inhibited"},
      {"measurement": "phosphorylation levels of ROS1, ERK, SHP-1", "setting": "[2]", "value": "inhibited"},
      {"measurement": "BCRP inhibitor", "setting": "[3]; Caco-2", "value": "BCRP inhibitor"},
      {"measurement": "inhibition at 0.1 μM", "setting": "[3]; [10]", "value": -11.1, "unit": "%"},
      {"measurement": "inhibition at 0.3 μM", "setting": "[3]; [10]", "value": 37.7, "unit": "%"},
      {"measurement": "inhibition at 1 μM", "setting": "[3]; [10]", "value": 8.3, "unit": "%"},
      {"measurement": "inhibition at 3 μM", "setting": "[3]; [10]", "value": 50.9, "unit": "%"},
      {"measurement": "inhibition at 10 µM", "setting": "[3]; [10]", "value": 97.2, "unit": "%"},
      {"measurement": "inhibition at 30 μM", "setting": "[3]; [10]", "value": 26.3, "unit": "%"},
      {"measurement": "IC50", "setting": "[4]", "value": "16.7 ± 8.11", "unit": "nM"},
      {"measurement": "inhibition at 0.5 μM", "setting": "[5]", "value": 46.4, "unit": "%"},
      {"measurement": "inhibition at 5 μM", "setting": "[5]", "value": 94.5, "unit": "%"},
      {"measurement": "inhibition at 50 μM", "setting": "[5]", "value": 112, "unit": "%"},
      {"measurement": "substrate of BCRP", "setting": "[6]; Caco-2", "value": "not for breast cancerresistance protein (BCRP)"},
      {"measurement": "substrate of P-gp", "setting": "[6]; Caco-2", "value": "transported substrate"},
      {"measurement": "Exhaust Ratio Mean", "setting": "[6]; Iruplinalkib 0.5 µM as substrate, with Ko143 10 µM", "value": 20.95},
      {"measurement": "Exhaust Ratio Mean", "setting": "[6]; Iruplinalkib 5 µM as substrate, with Ko143 10 µM", "value": 26.14},
      {"measurement": "Exhaust Ratio Mean", "setting": "[6]; Iruplinalkib 5 µM as substrate, with Verapamil 50 µM", "value": 2.626},
      {"measurement": "efflux ratio at 0.5 µM", "setting": "[6]; Caco-2", "value": 20.3},
      {"measurement": "efflux ratio at 5 µM", "setting": "[6]; Caco-2", "value": 84.2},
      {"measurement": "efflux ratio at 50 µM", "setting": "[6]; Caco-2", "value": 8.02},
      {"measurement": "efflux ratio at 0.5 µM", "setting": "[6]; Caco-2, with Elacridar 10 µM", "value": 2.81},
      {"measurement": "efflux ratio at 5 µM", "setting": "[6]; Caco-2, with Elacridar 10 µM", "value": 0.605},
      {"measurement": "efflux ratio at 50 µM", "setting": "[6]; Caco-2, with Elacridar 10 µM", "value": 0.614},
      {"measurement": "efflux ratio at 50 µM", "setting": "[6]; Caco-2, with Ko143 10 µM", "value": 9.89},
      {"measurement": "efflux ratio at 0.5 µM", "setting": "[6]; Caco-2, with Verapamil 50 µM", "value": 3.46},
      {"measurement": "efflux ratio at 50 µM", "setting": "[6]; Caco-2, with Verapamil 50 µM", "value": 1.95},
      {"measurement": "Uptake transport activity, Net value", "setting": "[7]; 0.5 μM", "value": 532.9, "unit": "pmol/mg protein/min"},
      {"measurement": "Uptake transport activity, Net value", "setting": "[7]; 5 μM", "value": 55.01, "unit": "pmol/mg protein/min"},
      {"measurement": "Uptake transport activity, Net value", "setting": "[7]; 50 μM", "value": -114.5, "unit": "pmol/mg protein/min"},
      {"measurement": "plasma protein binding rate", "setting": "[8]; 0.2 µM, SD rats plasma", "value": "high protein binding rate"},
      {"measurement": "plasma protein binding rate", "setting": "[8]; 0.2, 2 and 10 µM, Beagle dogs plasma", "value": "medium protein binding rate"},
      {"measurement": "plasma protein binding rate", "setting": "[8]; 0.2, 2 and 10 µM, CD-1 mice plasma", "value": "medium protein binding rate"},
      {"measurement": "plasma protein binding rate", "setting": "[8]; 0.2, 2 and 10 µM, Macaca fascicularis plasma", "value": "medium protein binding rate"},
      {"measurement": "plasma protein binding rate", "setting": "[8]; 0.2, 2 and 10 µM, SD rats plasma", "value": "medium protein binding rate"},
      {"measurement": "plasma protein binding rate", "setting": "[8]; 0.2, 2 and 10 µM, human plasma", "value": "medium protein binding rate; also recorded: moderate"},
      {"measurement": "inducer of CYP1A2", "setting": "[9]", "value": "not an inducer"}
    ]}
  ]
}
